Consider 22 compounds from patent US20230339970A1, “CASEIN KINASE 1 DELTA MODULATORS” (priority 2020, published 2023).

For one experiment, the target named is T1, human CSNK1D (Homo sapiens, UniProt P48730).
T1 construct: expressed in transfected cells
The experiment is described as follows: Whole Cell nBRET CSNK1D Binding Assay. Conditions: living CHO cells stably expressing human CSNK1D tagged with nanoluciferase; NanoBret tracer 130 nM; 2 hours at 37 C.

Experiment [1] has as its target T2, human recombinant GST cleaved CSNK1D (Homo sapiens, UniProt P48730).
T2 construct: GST (cleaved yes); purchased University of Dundee clone DU 19064
Description: Purified Enzyme Assay (ADP-Glo CSNK1D Kinase Assay). In kind it is biochemical. Conditions: 2 nM CSNK1D; peptide substrate 150 μM; ATP 20 μM; 45 minutes at room temperature. The gist of the method:
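GST-cleaved human recombinant CSNK1D phosphorylates peptide PLSRTL-pS-VASLPGL with ATP; compounds added in dose-response, 45 min at room temperature. ADP formed measured by ADP-Glo luminescence and converted to percent activity.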

T1 sequence (P48730 whole entry): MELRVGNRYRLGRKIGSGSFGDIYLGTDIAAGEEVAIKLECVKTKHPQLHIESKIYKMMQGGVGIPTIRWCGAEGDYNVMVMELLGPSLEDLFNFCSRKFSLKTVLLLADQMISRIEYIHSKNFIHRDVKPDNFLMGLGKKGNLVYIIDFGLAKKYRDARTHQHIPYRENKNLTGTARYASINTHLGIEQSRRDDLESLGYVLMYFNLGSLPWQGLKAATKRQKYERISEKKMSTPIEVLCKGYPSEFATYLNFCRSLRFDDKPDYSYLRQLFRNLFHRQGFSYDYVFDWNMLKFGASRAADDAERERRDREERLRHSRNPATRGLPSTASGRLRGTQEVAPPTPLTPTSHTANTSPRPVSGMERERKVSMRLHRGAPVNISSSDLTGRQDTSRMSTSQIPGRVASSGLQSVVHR
T2 sequence (P48730 whole entry): as above

Take `COCC1CCc2c(-c3cc(C)nc4[nH]ncc34)c(-c3ccc(F)cn3)nn2C1` (single isomer, unassigned) [Example 297, (*R)-4-[2-(5-Fluoro-2-pyridyl)-6-(methoxymethyl)-4,5,6,7-tetrahydropyrazolo[1,5-a]pyridin-3-yl]-6-methyl-1H-pyrazolo[3,4-b]pyridine]: the IC50 stood at 297 nM on human CSNK1D and 12 nM in experiment [1].

For `COCC1(F)CCc2c(-c3cc(C)nc4[nH]ccc34)c(-c3ccc(F)cn3)nn2C1` (single isomer, unassigned) [Example 298, (*S)-4-[6-Fluoro-2-(5-fluoro-2-pyridyl)-6-(methoxymethyl)-5,7-dihydro-4H-pyrazolo[1,5-a]pyridin-3-yl]-6-methyl-1H-pyrrolo[2,3-b]pyridine], the IC50 was 12 nM at human CSNK1D and 2 nM in experiment [1].

Turning to `COCC1(F)CCc2c(-c3cc(C)nc4[nH]ccc34)c(-c3ccc(F)cn3)nn2C1` (single isomer, unassigned) [Example 299, (*R)-4-[6-Fluoro-2-(5-fluoro-2-pyridyl)-6-(methoxymethyl)-5,7-dihydro-4H-pyrazolo[1,5-a]pyridin-3-yl]-6-methyl-1H-pyrrolo[2,3-b]pyridine], the IC50 is 303 nM on human CSNK1D and 20 nM in experiment [1].

In the case of `COC[C@]1(F)CCc2c(-c3ccnc4[nH]ncc34)c(-c3ccc(F)cn3)nn2C1` (single isomer, unassigned) [Example 300, (*S)-4-[6-Fluoro-2-(5-fluoro-2-pyridyl)-6-(methoxymethyl)-5,7-dihydro-4H-pyrazolo[1,5-a]pyridin-3-yl]-1H-pyrazolo[3,4-b]pyridine], the IC50 stood at 1910 nM at human CSNK1D and 75 nM in experiment [1].

Take `COCC1(F)CCc2c(-c3ccnc4[nH]ncc34)c(-c3ccc(F)cn3)nn2C1` (single isomer, unassigned) [Example 301, (*R)-4-[6-Fluoro-2-(5-fluoro-2-pyridyl)-6-(methoxymethyl)-5,7-dihydro-4H-pyrazolo[1,5-a]pyridin-3-yl]-1H-pyrazolo[3,4-b]pyridine]: the IC50 on human CSNK1D was 110 nM; in experiment [1] it was 4 nM.

Turning to `COCC1(F)CCc2c(-c3c(F)cnc4[nH]ncc34)c(-c3ccc(F)cn3)nn2C1` (single isomer, unassigned) [Example 302, (*S)-5-Fluoro-4-[6-fluoro-2-(5-fluoro-2-pyridyl)-6-(methoxymethyl)-5,7-dihydro-4H-pyrazolo[1,5-a]pyridin-3-yl]-1H-pyrazolo[3,4-b]pyridine], the figures for the IC50 (at human CSNK1D; in experiment [1]) were 3250 nM and 132 nM, respectively.

`COCC1(F)CCc2c(-c3c(F)cnc4[nH]ncc34)c(-c3ccc(F)cn3)nn2C1` (single isomer, unassigned) [Example 303, (*R)-5-Fluoro-4-[6-fluoro-2-(5-fluoro-2-pyridyl)-6-(methoxymethyl)-5,7-dihydro-4H-pyrazolo[1,5-a]pyridin-3-yl]-1H-pyrazolo[3,4-b]pyridine]: the figures for the IC50 (on human CSNK1D; in experiment [1]) were 180 nM and 9 nM, respectively.

Regarding `COC[C@]1(F)CCc2c(-c3cc(C)nc4[nH]ncc34)c(-c3ccc(F)cn3)nn2C1` (single isomer, unassigned) [Example 304, (*S)-4-[6-Fluoro-2-(5-fluoro-2-pyridyl)-6-(methoxymethyl)-5,7-dihydro-4H-pyrazolo[1,5-a]pyridin-3-yl]-6-methyl-1H-pyrazolo[3,4-b]pyridine], the IC50 on human CSNK1D turned out to be 34 nM; in experiment [1], 4 nM.

On to `COCC1(F)CCc2c(-c3cc(C)nc4[nH]ncc34)c(-c3ccc(F)cn3)nn2C1` (single isomer, unassigned) [Example 305, (*R)-4-[6-Fluoro-2-(5-fluoro-2-pyridyl)-6-(methoxymethyl)-5,7-dihydro-4H-pyrazolo[1,5-a]pyridin-3-yl]-6-methyl-1H-pyrazolo[3,4-b]pyridine], for which the IC50 came to 2850 nM on human CSNK1D and 89 nM in experiment [1].

Consider `COCC1(F)CCc2c(-c3cc(C(F)F)nc4[nH]ncc34)c(-c3ccc(F)cn3)nn2C1` (single isomer, unassigned) [Example 306, (*S)-6-(Difluoromethyl)-4-[6-fluoro-2-(5-fluoro-2-pyridyl)-6-(methoxymethyl)-5,7-dihydro-4H-pyrazolo[1,5-a]pyridin-3-yl]-1H-pyrazolo[3,4-b]pyridine], for which the IC50 at human CSNK1D stood at 68 nM; in experiment [1] it was 8 nM.

`COCC1(F)CCc2c(-c3cc(C(F)F)nc4[nH]ncc34)c(-c3ccc(F)cn3)nn2C1` (single isomer, unassigned) [Example 307, (*R)-6-(Difluoromethyl)-4-[6-fluoro-2-(5-fluoro-2-pyridyl)-6-(methoxymethyl)-5,7-dihydro-4H-pyrazolo[1,5-a]pyridin-3-yl]-1H-pyrazolo[3,4-b]pyridine]: the 50% inhibitory concentration (IC50) is > 10000 nM on human CSNK1D and 183 nM in experiment [1].

Consider `COCC1(F)CCc2c(-c3c(F)c(C)nc4[nH]ncc34)c(-c3ccc(F)cn3)nn2C1` (single isomer, unassigned) [Example 308, (*S)-5-Fluoro-4-[6-fluoro-2-(5-fluoro-2-pyridyl)-6-(methoxymethyl)-5,7-dihydro-4H-pyrazolo[1,5-a]pyridin-3-yl]-6-methyl-1H-pyrazolo[3,4-b]pyridine], for which the IC50 on human CSNK1D was found to be 34 nM; in experiment [1], 6 nM.

As for `COCC1(F)CCc2c(-c3c(F)c(C)nc4[nH]ncc34)c(-c3ccc(F)cn3)nn2C1` (single isomer, unassigned) [Example 309, (*R)-5-Fluoro-4-[6-fluoro-2-(5-fluoro-2-pyridyl)-6-(methoxymethyl)-5,7-dihydro-4H-pyrazolo[1,5-a]pyridin-3-yl]-6-methyl-1H-pyrazolo[3,4-b]pyridine], the values for the IC50 (on human CSNK1D; in experiment [1]) were 1320 nM and 97 nM, respectively.

In the case of `[2H]C([2H])([2H])OC[C@]1(F)CCc2c(-c3cc(C)nc4[nH]ncc34)c(-c3ccc(F)cn3)nn2C1` (single isomer, unassigned) [Example 310, (*S)-4-(6-Fluoro-2-(5-fluoropyridin-2-yl)-6-((methoxy-d3)methyl)-4,5,6,7-tetrahydropyrazolo[1,5-a]pyridin-3-yl)-6-methyl-1H-pyrazolo[3,4-b]pyridine], the half-maximal inhibitory concentration (IC50) on human CSNK1D is 34 nM; in experiment [1] it was 3 nM.

Take `[2H]C([2H])([2H])OC[C@@]1(F)CCc2c(-c3cc(C)nc4[nH]ncc34)c(-c3ccc(F)cn3)nn2C1` (single isomer, unassigned) [Example 311, (*R)-4-(6-Fluoro-2-(5-fluoropyridin-2-yl)-6-((methoxy-d3)methyl)-4,5,6,7-tetrahydropyrazolo[1,5-a]pyridin-3-yl)-6-methyl-1H-pyrazolo[3,4-b]pyridine]: the IC50 at human CSNK1D was found to be 1410 nM; in experiment [1], 92 nM.

Take `[2H]C([2H])([2H])OC([2H])([2H])[C@]1(F)CCc2c(-c3cc(C)nc4[nH]ncc34)c(-c3ccc(F)cn3)nn2C1` (single isomer, unassigned) [Example 312, (*S)-4-[6-[(Methoxy-d3)methyl-d2]-6-fluoro-2-(5-fluoro-2-pyridyl)-5,7-dihydro-4H-pyrazolo[1,5-a]pyridin-3-yl]-6-methyl-1H-pyrazolo[3,4-b]pyridine]: the IC50 at human CSNK1D was found to be 39 nM; in experiment [1] it was 4 nM.

Consider `[2H]C([2H])([2H])OC([2H])([2H])[C@@]1(F)CCc2c(-c3cc(C)nc4[nH]ncc34)c(-c3ccc(F)cn3)nn2C1` (single isomer, unassigned) [Example 313, (*R)-4-[6-[(Methoxy-d3)methyl-d2]-6-fluoro-2-(5-fluoro-2-pyridyl)-5,7-dihydro-4H-pyrazolo[1,5-a]pyridin-3-yl]-6-methyl-1H-pyrazolo[3,4-b]pyridine], for which the IC50 at human CSNK1D was determined as 5120 nM; in experiment [1], 102 nM.

As to `Fc1ccc(-c2nn3c(c2-c2ccnc4[nH]ncc24)CCC(F)(COC(F)F)C3)nc1` (single isomer, unassigned) [Example 314, (*S)-4-(6-((Difluoromethoxy)methyl)-6-fluoro-2-(5-fluoropyridin-2-yl)-4,5,6,7-tetrahydropyrazolo[1,5-a]pyridin-3-yl)-1H-pyrazolo[3,4-b]pyridine], the IC50 on human CSNK1D stood at 14 nM; in experiment [1], 4 nM.

Consider `Fc1ccc(-c2nn3c(c2-c2ccnc4[nH]ncc24)CCC(F)(COC(F)F)C3)nc1` (single isomer, unassigned) [Example 315, (*R)-4-(6-((Difluoromethoxy)methyl)-6-fluoro-2-(5-fluoropyridin-2-yl)-4,5,6,7-tetrahydropyrazolo[1,5-a]pyridin-3-yl)-1H-pyrazolo[3,4-b]pyridine], for which the IC50 at human CSNK1D was 1880 nM; in experiment [1] it was 73 nM.

For the compound `Fc1ccc(-c2nn3c(c2-c2ccnc4[nH]ncc24)CCC(F)(COC(F)(F)F)C3)nc1` (single isomer, unassigned) [Example 316, (*S)-4-[6-Fluoro-2-(5-fluoro-2-pyridyl)-6-(rifluoromethoxymethyl)-5,7-dihydro-4H-pyrazolo[1,5-a]pyridin-3-yl]-1H-pyrazolo[3,4-b]pyridine], the IC50 at human CSNK1D was found to be 54 nM; in experiment [1], 6 nM.

For the compound `Fc1ccc(-c2nn3c(c2-c2ccnc4[nH]ncc24)CCC(F)(COC(F)(F)F)C3)nc1` (single isomer, unassigned) [Example 317, (*R)-4-[6-Fluoro-2-(5-fluoro-2-pyridyl)-6-(trifluoromethoxymethyl)-5,7-dihydro-4H-pyrazolo[1,5-a]pyridin-3-yl]-1H-pyrazolo[3,4-b]pyridine], the IC50 at human CSNK1D came to 8520 nM; in experiment [1] it was 111 nM.

For the compound `COCCC1(C)CCc2c(-c3ccnc4[nH]ncc34)c(-c3ccc(F)cn3)nn2C1` (single isomer, unassigned) [Example 318, (*S)-4-[2-(5-Fluoro-2-pyridyl)-6-(2-methoxyethyl)-6-methyl-5,7-dihydro-4H-pyrazolo[1,5-a]pyridin-3-yl]-1H-pyrazolo[3,4-b]pyridine], the figures for the IC50 (at human CSNK1D; in experiment [1]) were 40 nM and 3 nM, respectively.

A word on the IC50: it is the concentration at which inhibition is half-maximal.
